Assay results reported in patent publication US10544140B2, “Pharmaceutical composition containing, as active ingredient, 7-azaindolin-2-one derivative or pharmaceutically acceptable salt thereof” (LG CHEM, LTD., priority 2015, dated 2020).

What was measured:
U937 (myeloid leukemia) = test: Cytotoxicity test by MTT assay, U937; type: cell-based, human; settings: Homo sapiens, U-937; U937, 48 h
Description: (§1) A cytotoxicity test was measured by MTT assay. Each cell line was cultured in a 96-well plate at a density of 1×10^4 cells/well. After 24 hours, the culture medium containing 1% FBS (fetal bovine serum) was treated and reacted with compounds or solutions of compounds for 48 hours. MTT (3-(4,5-dimethylthiazol-2-yl)-2,5-diphenyltetrazolium bromide) solution (5 mg/mL) was added to each well and reacted for 4 hours in an incubator. […] After reacting in an incubator for 30 minutes, the formation of formazan was quantified using a microplate reader at an absorbance of 540 nm. […] The human cancer cell lines used herein are MCF-7 (breast cancer), MDA-MB-231 (breast cancer), HT-29 (colon cancer), DU145 (prostate cancer), U937 (myeloid leukemia), A549 (lung cancer), PANC-1 (pancreatic cancer) and MIA PaCa-2 (pancreatic cancer).

[1] = tested on: PANC-1 (human pancreatic cancer cell line); test: Cytotoxicity test by MTT assay, PANC-1; type: cell-based; settings: for IC50 / cytotoxicity at 30 µM: Homo sapiens; for IC50: PANC-1, 48 h; for cytotoxicity at 30 µM: PANC-1, 30 μM, 48 h, read-out: Cell viability (% inhibition)
Description: (§2) A cytotoxicity test was measured by MTT assay. Each cell line was cultured in a 96-well plate at a density of 1×10^4 cells/well. […] MTT (3-(4,5-dimethylthiazol-2-yl)-2,5-diphenyltetrazolium bromide) solution (5 mg/mL) was added to each well and reacted for 4 hours in an incubator. […] After reacting in an incubator for 30 minutes, the formation of formazan was quantified using a microplate reader at an absorbance of 540 nm. […] At this time, sunitinib was used as a control group. […] The human cancer cell lines used herein are MCF-7 (breast cancer), MDA-MB-231 (breast cancer), HT-29 (colon cancer), DU145 (prostate cancer), U937 (myeloid leukemia), A549 (lung cancer), PANC-1 (pancreatic cancer) and MIA PaCa-2 (pancreatic cancer).

DU145 (prostate cancer) = test: Cytotoxicity test by MTT assay, DU145; type: cell-based, human; settings: DU-145; for IC50: Homo sapiens, DU145, 48 h
Description: as §1

[2] = Cytotoxicity test by MTT assay, CHO-K1 normal cell line; type: cell-based; settings: Chinese hamster, CHO-K1 cells (normal cell line)
Description: (§3) A cytotoxicity test was measured by MTT assay. Each cell line was cultured in a 96-well plate at a density of 1×10^4 cells/well. After 24 hours, the culture medium containing 1% FBS (fetal bovine serum) was treated and reacted with compounds or solutions of compounds for 48 hours. MTT (3-(4,5-dimethylthiazol-2-yl)-2,5-diphenyltetrazolium bromide) solution (5 mg/mL) was added to each well and reacted for 4 hours in an incubator. […] After reacting in an incubator for 30 minutes, the formation of formazan was quantified using a microplate reader at an absorbance of 540 nm.

A549 (lung cancer) = test: Cytotoxicity test by MTT assay, A549; type: cell-based, human; settings: for IC50: Homo sapiens, A549, 48 h
Description: as §1

[3] = Cytotoxicity test by MTT assay, HEK293 normal cell line; type: cell-based; settings: human, HEK293 cells (normal cell line)
Description: as §3

HT-29 (colon cancer) = test: Cytotoxicity test by MTT assay, HT-29; type: cell-based, human; settings: for IC50: Homo sapiens, HT-29, 48 h
Description: as §1

[4] = tested on: MCF-7 (human breast cancer cell line); test: Cytotoxicity test by MTT assay, MCF-7; type: cell-based; settings: for cytotoxicity at 30 µM / IC50: Homo sapiens, MCF7; for cytotoxicity at 30 µM: MCF-7, 30 μM, 48 h, read-out: Cell viability (% inhibition); for IC50: MCF-7, 48 h; for cytotoxicity compared with the reference drug sunitinib: MCF-7
Description: as §2

[5] = tested on: MDA-MB-231 (breast cancer); test: Cytotoxicity test by MTT assay, MDA-MB-231; type: cell-based, human; settings: for IC50: Homo sapiens, MBA-MB-231, 48 h
Description: as §1

[6] = tested on: MIA PaCa-2 (pancreatic cancer); test: Cytotoxicity test by MTT assay, MIA PaCa-2; type: cell-based, human; settings: for IC50: Homo sapiens, MIA PaCa-2, 48 h
Description: as §1

| Compound | IC50 (U937 (myeloid leukemia)) [µM] | IC50 [1] [µM] | cytotoxicity at 30 µM [1] [%] | cytotoxicity compared with the reference drug sunitinib (DU145 (prostate cancer)) | IC50 (DU145 (prostate cancer)) [µM] | IC50 at 48 h [2] [µM] | IC50 (A549 (lung cancer)) [µM] | IC50 at 48 h [3] [µM] | IC50 (HT-29 (colon cancer)) [µM] | cytotoxicity at 30 µM [4] [%] | IC50 [4] [µM] | IC50 [5] [µM] | IC50 [6] [µM] | also measured |
| --- | --- | --- | --- | --- | --- | --- | --- | --- | --- | --- | --- | --- | --- | --- |
| COc1ccc(OC)c(/C=C2\C(=O)Nc3nc(C)c(O)c(C)c32)c1 [Compound I-15, (Z)-3-(2,5-Dimethoxybenzylidene)-5-hydroxy-4,6-dimethyl-1H-pyrrolo[2,3-b]pyridin-2(3H)-one] | 33 | 19.5 | 69.2 | greater than or equal to that of the reference drug sunitinib | 5.55 | 47.5 | 47.5 | 37.8 | 16.6 | 67.5 | 20.9 | 22.9 |  |  |
| Cc1nc2c(c(C)c1O)/C(=C/c1ccncc1)C(=O)N2 [Compound I-23, (Z)-5-Hydroxy-4,6-dimethyl-3-(pyridin-4-ylmethylene)-1H-pyrrolo[2,3-b]pyridin-2(3H)-one] | 34.5 | 19.1 | 65.4 |  | 30.1 | 57 | 30.1 | 45.7 | 30.1 | 63.2 | 19.1 |  |  |  |
| Cc1nc2c(c(C)c1O)/C(=C/c1cccnc1)C(=O)N2 [Compound I-22, (Z)-5-Hydroxy-4,6-dimethyl-3-(pyridin-3-ylmethylene)-1H-pyrrolo[2,3-b]pyridin-2(3H)-one] | 14.5 |  | 72.7 | greater than or equal to that of the reference drug sunitinib | 1.18 | 78.5 | 13.8 | > 90 | 19.9 | 78 | 17.4 | 9.61 |  |  |
| CCCCC/C=C1\C(=O)Nc2nc(C)c(O)c(C)c21 [Compound I-01, (Z)-3-Hexylidene-5-hydroxy-4,6-dimethyl-1H-pyrrolo[2,3-b]pyridin-2(3H)-one] | 11.5 |  | 77.4 |  | 11 | 20.9 | 7.6 | > 90 | 12.9 | 76.9 | 13.8 | 12.6 |  |  |
| COc1ccc(Br)cc1/C=C1\C(=O)Nc2nc(C)c(O)c(C)c21 [Compound I-17, (Z)-3-(5-bromo-2-methoxybenzylidene)-5-hydroxy-4,6-dimethyl-1H-pyrrolo[2,3-b]pyridin-2(3H)-one] | 12.6 |  | 71.7 | greater than or equal to that of the reference drug sunitinib | 4.57 | 30.1 | 10.1 | 33 | 25.1 | 74.7 | 11 | 10.5 |  |  |
| Cc1nc2c(c(C)c1O)/C(=C/c1ccc(N(C)C)cc1)C(=O)N2 [Compound I-18, (Z)-3-(4-(Dimethylamino)benzylidene)-5-hydroxy-4,6-dimethyl-1H-pyrrolo[2,3-b]pyridin-2(3H)-one] |  | 13.8 | 66.3 | greater than or equal to that of the reference drug sunitinib | 1.14 | > 90 | 13.2 | > 90 | 36.3 | 62.5 | 13.2 | 12.1 | 11.5 | cytotoxicity compared with the reference drug sunitinib ([1]; PANC-1): greater than or equal to that of the reference drug sunitinib |
| CCN(CC)CCNC(=O)c1c(C)[nH]c(/C=C2\C(=O)Nc3ccc(F)cc32)c1C [Sunitinib, sunitinib, reference compound] | 6.98 |  |  |  | 5.88 |  | 6.98 | 7.3 | 4.89 |  |  | 6.09 | 8.51 |  |
| Cc1nc2c(c(C)c1O)/C(=C/C(c1ccccc1)c1ccccc1)C(=O)N2 [Compound I-19, (Z)-3-(2,2-Diphenylethylidene)-5-hydroxy-4,6-dimethyl-1H-pyrrolo[2,3-b]pyridin-2(3H)-one] | 16.6 | 7.41 | 81.4 |  | 8.77 | 30.1 | 31.5 | 26.2 | 11.5 | 78.1 | 6.37 | 22.9 |  | cytotoxicity compared with the reference drug sunitinib ([1]; PANC-1): greater than or equal to that of the reference drug sunitinib; cytotoxicity compared with the reference drug sunitinib [4]: greater than or equal to that of the reference drug sunitinib |
| CCNCCNC(=O)c1c(C)[nH]c(/C=C2\C(=O)Nc3nc(C)c(O)c(C)c32)c1C [Compound I-40, (Z)—N-(2-(Ethylamino)ethyl)-5-((5-hydroxy-4,6-dimethyl-2-oxo-1H-pyrrolo[2,3-b]pyridin-3(2H)-ylidene)methyl)-2,4-dimethyl-1H-pyrrole-3-carboxamide] |  | 1.02 |  | greater than or equal to that of the reference drug sunitinib | 0.26 | 40.7 | 1.47 | 19.1 | 1.45 |  | 1.32 | 1.47 | 1.58 | cytotoxicity compared with the reference drug sunitinib ([1]; PANC-1): greater than or equal to that of the reference drug sunitinib; cytotoxicity compared with the reference drug sunitinib (A549 (lung cancer); A-549): greater than or equal to that of the reference drug sunitinib; cytotoxicity compared with the reference drug sunitinib ([6]; MIA PaCa-2): greater than or equal to that of the reference drug sunitinib; cytotoxicity compared with the reference drug sunitinib (HT-29 (colon cancer); HT-29): greater than or equal to that of the reference drug sunitinib; cytotoxicity compared with the reference drug sunitinib [4]: greater than or equal to that of the reference drug sunitinib; cytotoxicity compared with the reference drug sunitinib [5]: greater than or equal to that of the reference drug sunitinib |
| Nc1ccn([C@@H]2O[C@H](CO)[C@@H](O)C2(F)F)c(=O)n1 [Gemcitabine, reference compound] |  | > 1000 |  |  |  |  |  |  |  |  |  |  | > 1000 | resistance of the cell line to the drug ([1]; PANC-1): resistance to gemcitabine; resistance of the cell line to the drug ([6]; MIA PaCa-2): resistance to gemcitabine |
| Cc1nc2c(c(C)c1O)/C(=C/c1[nH]c(C)c(C(=O)NCCN3CCCCC3)c1C)C(=O)N2 [Compound I-42, (Z)-5-((5-Hydroxy-4,6-dimethyl-2-oxo-1H-pyrrolo[2,3-b]pyridin-3(2H)-ylidene)methyl)-2,4-dimethyl-N-(2-(piperidin-1-yl)ethyl)-1H-pyrrole-3-carboxamide] | 14.8 |  | 70.7 |  |  | 51.3 | 13.2 | 21.4 | 15.2 | 63.4 | 8.7 | 8.12 |  |  |
| Cc1nc2c(c(C)c1O)/C(=C/c1[nH]c(C)c(C(=O)O)c1C)C(=O)N2 [Compound I-37, (Z)-5-((5-Hydroxy-4,6-dimethyl-2-oxo-1H-pyrrolo[2,3-b]pyridin-3(2H)-ylidene)methyl)-2,4-dimethyl-1H-pyrrole-3-carboxylic acid] | 14.8 |  | 55.8 |  |  | 33.1 | 19.9 | 38 | 26.2 | 60.4 | 14.8 | 19.5 |  |  |
| Cc1nc2c(c(C)c1O)/C(=C/c1ccoc1)C(=O)N2 [Compound I-28, (Z)-3-(Furan-3-ylmethylene)-5-hydroxy-4,6-dimethyl-1H-pyrrolo[2,3-b]pyridin-2(3H)-one] | 31.5 |  | 26.1 |  | 22.9 | > 90 |  | 19.9 |  | 66.3 | 22.9 |  |  |  |
